The source made the active and inactive calls. The calls are words filed in the database; no cut-off is given here.
Legend:
Nucleic Acid [1] = test: Binding affinity to Escherichia coli pUC19 DNA assessed as form 2 DNA level at 0.175 mM after 31.48 hrs by agarose gel electrophoresis; format: nucleic-acid assay
Nucleic Acid [2] = test: Binding affinity to Escherichia coli pUC19 DNA assessed as form 2 DNA level at 0.262 mM after 24.08 hrs by agarose gel electrophoresis; format: nucleic-acid assay
Nucleic Acid [3] = test: Binding affinity to Escherichia coli pUC19 DNA assessed as form 1 DNA level at 0.320 mM after 13.07 hrs by agarose gel electrophoresis; format: nucleic-acid assay
Nucleic Acid [4] = test: Binding affinity to Escherichia coli pUC19 DNA assessed as form 2 DNA level at 0.349 mM after 24.08 hrs by agarose gel electrophoresis; format: nucleic-acid assay
Nucleic Acid [5] = test: Binding affinity to Escherichia coli pUC19 DNA assessed as form 2 DNA level at 0.130 mM after 14 hrs by agarose gel electrophoresis; format: nucleic-acid assay
Nucleic Acid [6] = test: Binding affinity to Escherichia coli pUC19 DNA assessed as form 1 DNA level at 0.130 mM after 8.08 hrs by agarose gel electrophoresis; format: nucleic-acid assay
Nucleic Acid [7] = test: Binding affinity to Escherichia coli pUC19 DNA assessed as form 1 DNA level at 0.698 mM after 3.72 hrs by agarose gel electrophoresis; format: nucleic-acid assay
Nucleic Acid [8] = test: Binding affinity to Escherichia coli pUC19 DNA assessed as form 2 DNA level at 0.175 mM after 13.07 hrs by agarose gel electrophoresis; format: nucleic-acid assay
Nucleic Acid [9] = test: Binding affinity to Escherichia coli pUC19 DNA assessed as form 2 DNA level at 0.463 mM after 13.07 hrs by agarose gel electrophoresis; format: nucleic-acid assay
Nucleic Acid [10] = test: Binding affinity to Escherichia coli pUC19 DNA assessed as form 1 DNA level at 0.349 mM after 23.02 hrs by agarose gel electrophoresis; format: nucleic-acid assay
Nucleic Acid [11] = test: Binding affinity to Escherichia coli pUC19 DNA assessed as form 2 DNA level at 0.130 mM after 11.30 hrs by agarose gel electrophoresis; format: nucleic-acid assay
HeLa = test: Growth inhibition of human HeLa cells at 100 uM after 72 hrs by MTT assay; format: functional; parameters: scale not given: the % may be the effect or the level left
Nucleic Acid [12] = test: Binding affinity to Escherichia coli pUC19 DNA assessed as form 1 DNA level at 0.349 mM after 11.33 hrs by agarose gel electrophoresis; format: nucleic-acid assay
Nucleic Acid [13] = test: Binding affinity to Escherichia coli pUC19 DNA assessed as form 1 DNA level at 0.262 mM after 27.07 hrs by agarose gel electrophoresis; format: nucleic-acid assay
Nucleic Acid [14] = test: Binding affinity to Escherichia coli pUC19 DNA assessed as form 1 DNA level at 0.463 mM after 29.33 hrs by agarose gel electrophoresis; format: nucleic-acid assay
Nucleic Acid [15] = test: Binding affinity to Escherichia coli pUC19 DNA assessed as form 1 DNA level at 0.349 mM after 24.08 hrs by agarose gel electrophoresis; format: nucleic-acid assay
Nucleic Acid [16] = test: Binding affinity to Escherichia coli pUC19 DNA assessed as form 2 DNA level at 0.262 mM by agarose gel electrophoresis; format: nucleic-acid assay
Nucleic Acid [17] = test: Binding affinity to Escherichia coli pUC19 DNA assessed as form 2 DNA level at 0.698 mM after 12.13 hrs by agarose gel electrophoresis; format: nucleic-acid assay
Nucleic Acid [18] = test: Binding affinity to Escherichia coli pUC19 DNA assessed as form 2 DNA level at 0.262 mM after 23.02 hrs by agarose gel electrophoresis; format: nucleic-acid assay
Nucleic Acid [19] = test: Binding affinity to Escherichia coli pUC19 DNA assessed as form 2 DNA level at 0.698 mM after 3.72 hrs by agarose gel electrophoresis; format: nucleic-acid assay
Nucleic Acid [20] = test: Binding affinity to supercoiled Escherichia coli pUC19 DNA assessed as formation of nicked circular DNA at 1.10 mM at pH 6.0 for 24 hrs in presence of potassium iodide by agarose gel electrophoresis; format: nucleic-acid assay
Nucleic Acid [21] = test: Binding affinity to Escherichia coli pUC19 DNA assessed as form 1 DNA level at 0.262 mM after 24.08 hrs by agarose gel electrophoresis; format: nucleic-acid assay
Nucleic Acid [22] = test: Binding affinity to Escherichia coli pUC19 DNA assessed as form 2 DNA level at 0.175 mM after 25.35 hrs by agarose gel electrophoresis; format: nucleic-acid assay
Nucleic Acid [23] = test: Binding affinity to Escherichia coli pUC19 DNA assessed as form 1 DNA level at 0.698 mM after 6.42 hrs by agarose gel electrophoresis; format: nucleic-acid assay
Nucleic Acid [24] = test: Binding affinity to Escherichia coli pUC19 DNA assessed as form 2 DNA level at 0.463 mM after 31.48 hrs by agarose gel electrophoresis; format: nucleic-acid assay
Nucleic Acid [25] = test: Binding affinity to Escherichia coli pUC19 DNA assessed as form 1 DNA level at 0.320 mM by agarose gel electrophoresis; format: nucleic-acid assay
Nucleic Acid [26] = test: Binding affinity to Escherichia coli pUC19 DNA assessed as form 1 DNA level at 0.262 mM after 23.02 hrs by agarose gel electrophoresis; format: nucleic-acid assay
Nucleic Acid [27] = test: Binding affinity to Escherichia coli pUC19 DNA assessed as form 2 DNA level at 0.463 mM by agarose gel electrophoresis; format: nucleic-acid assay
Nucleic Acid [28] = test: Binding affinity to Escherichia coli pUC19 DNA assessed as form 2 DNA level at 0.320 mM after 29.33 hrs by agarose gel electrophoresis; format: nucleic-acid assay
Nucleic Acid [29] = test: Binding affinity to Escherichia coli pUC19 DNA assessed as form 1 DNA level at 0.175 mM after 23.12 hrs by agarose gel electrophoresis; format: nucleic-acid assay
Nucleic Acid [30] = test: Binding affinity to Escherichia coli pUC19 DNA assessed as form 1 DNA level at 0.698 mM by agarose gel electrophoresis; format: nucleic-acid assay
Nucleic Acid [31] = test: Binding affinity to Escherichia coli pUC19 DNA assessed as form 1 DNA level at 0.175 mM after 29.33 hrs by agarose gel electrophoresis; format: nucleic-acid assay
Nucleic Acid [32] = test: Binding affinity to Escherichia coli pUC19 DNA assessed as form 1 DNA level at 0.262 mM after 25.02 hrs by agarose gel electrophoresis; format: nucleic-acid assay
Nucleic Acid [33] = test: Binding affinity to Escherichia coli pUC19 DNA assessed as form 2 DNA level at 0.349 mM after 5.40 hrs by agarose gel electrophoresis; format: nucleic-acid assay
Nucleic Acid [34] = test: Binding affinity to Escherichia coli pUC19 DNA assessed as form 1 DNA level at 0.130 mM after 14 hrs by agarose gel electrophoresis; format: nucleic-acid assay
HL-60 = test: Growth inhibition of human HL60 cells at 1000 uM after 72 hrs by MTT assay; format: functional; parameters: scale not given: the % may be the effect or the level left
Nucleic Acid [35] = test: Binding affinity to Escherichia coli pUC19 DNA assessed as form 2 DNA level at 0.262 mM after 27.07 hrs by agarose gel electrophoresis; format: nucleic-acid assay
Nucleic Acid [36] = test: Binding affinity to Escherichia coli pUC19 DNA assessed as form 1 DNA level at 0.320 mM after 4.95 hrs by agarose gel electrophoresis; format: nucleic-acid assay
Nucleic Acid [37] = test: Binding affinity to Escherichia coli pUC19 DNA assessed as form 1 DNA level at 0.175 mM after 25.35 hrs by agarose gel electrophoresis; format: nucleic-acid assay
Nucleic Acid [38] = test: Binding affinity to Escherichia coli pUC19 DNA assessed as form 1 DNA level at 0.463 mM after 31.48 hrs by agarose gel electrophoresis; format: nucleic-acid assay
Nucleic Acid [39] = test: Binding affinity to Escherichia coli pUC19 DNA assessed as form 2 DNA level at 0.130 mM after 5.42 hrs by agarose gel electrophoresis; format: nucleic-acid assay

Cl.Cl.NNC1=NCC(O)CN1 (stereo unspecified)
Activity (Nucleic Acid [1]): 26% | Activity (Nucleic Acid [2]): 10.5% | Activity (Nucleic Acid [3]): 84.7% | Activity (Nucleic Acid [4]): 28.1% | Activity (Nucleic Acid [5]): 24.4% | Activity (Nucleic Acid [6]): 83.8% | Activity (Nucleic Acid [7]): 94.9% | Activity (Nucleic Acid [8]): 9.19% | Activity (Nucleic Acid [9]): 22.5% | Activity (Nucleic Acid [10]): 72.3% | Activity (Nucleic Acid [11]): 21.8% | Activity (HeLa): 0% | Activity (Nucleic Acid [12]): 90.9% | Activity (Nucleic Acid [13]): 84.7% | Activity (Nucleic Acid [14]): 57.8% | Activity (Nucleic Acid [15]): 71.9% | Activity (Nucleic Acid [16]): 2.81% | Activity (Nucleic Acid [17]): 23% | Activity (Nucleic Acid [18]): 9.9% | Activity (Nucleic Acid [19]): 5.08% | Activity (Nucleic Acid [20]): inactive | Activity (Nucleic Acid [21]): 89.5% | Activity (Nucleic Acid [22]): 21.1% | Activity (Nucleic Acid [23]): 86.6% | Activity (Nucleic Acid [24]): 48.9% | Activity (Nucleic Acid [25]): 98.2% | Activity (Nucleic Acid [26]): 90.1% | Activity (Nucleic Acid [27]): 3.75% | Activity (Nucleic Acid [28]): 65.2% | Activity (Nucleic Acid [29]): 80.8% | Activity (Nucleic Acid [30]): 98.1% | Activity (Nucleic Acid [31]): 76.3% | Activity (Nucleic Acid [32]): 88.1% | Activity (Nucleic Acid [33]): 3.73% | Activity (Nucleic Acid [34]): 75.5% | Activity (HL-60): 91% | Activity (Nucleic Acid [35]): 15.3% | Activity (Nucleic Acid [36]): 94% | Activity (Nucleic Acid [37]): 78.9% | Activity (Nucleic Acid [38]): 51.1% | Activity (Nucleic Acid [39]): 14.9%

Source: ChEMBL document CHEMBL1154064, “Synthesis and DNA cleavage activity of 2-hydrazinyl-1,4,5,6-tetrahydropyrimidine containing hydroxy group” (2009)
